Legend:
[1] = McMurry et al., J. Med. Chem. (1998), 41, 3546-3549; cited from earlier work
[2] = compared to the unsubstituted DTPA; cited from earlier work
[3] = competition complexation: mixture of one equivalent each of Va, VIa and Gd(III) salt; format: physicochemical; settings: one equivalent each of Va (R=-NO2)
From the text: (§1) In this case, as was discovered, the configuration of methyl- and benzyl substituent must be present as (4S,8S) (see compound Va) or (4R,8R) (see compound Vb) to achieve the described positive effect.

[4] = radiotoxicity of the metal complex in vivo; settings: compared to compound VIa
From the text: as §1

[5] = thermodynamic stability constant of the metal complex (logKY); format: physicochemical; settings: in vitro
From the text: as §1

[6] = complex stability / complexing properties, comparison of stereoisomers; format: physicochemical; settings: comparison of configurations (4S,8S)/(4R,8R) with (4S,8R)/(4R,8S)
From the text: as §1

For `O=C(O)CN(CC(=O)O)[C@H](Cc1ccc([N+](=O)[O-])cc1)CN(CC(=O)O)[C@@H]1CCCC[C@H]1N(CC(=O)O)CC(=O)O` [II], the “in-vitro and in-vivo stability” value [1] is given as “higher in-vitro and in-vivo stability than compound III”.

In the case of `CC(CN(CC(=O)O)C[C@H](Cc1ccc([N+](=O)[O-])cc1)N(CC(=O)O)CC(=O)O)N(CC(=O)O)CC(=O)O` (stereo partly shown) [MX-DTPA], the “complex stability (in words)” value [2] is listed as “increased complex stability compared to the unsubstituted DTPA”.

For `C[C@@H](CN(CC(=O)O)C[C@H](Cc1ccc([N+](=O)[O-])cc1)N(CC(=O)O)CC(=O)O)N(CC(=O)O)CC(=O)O` [Va], the “Gd complex formed in competition” value [3] was “almost exclusively the Gd complex of compound Va is formed”, the “radiotoxicity of the metal complex” value [4] was “reduced in vivo compared to compound VIa” and the “thermodynamic stability constant logKY” value [5] was 24.7±0.7. For the same molecule, the “complex stability / complexing properties (in words)” value [6] was “considerably better complexing properties than compounds VIa and VIb”.

For `C[C@H](CN(CC(=O)O)C[C@@H](Cc1ccc([N+](=O)[O-])cc1)N(CC(=O)O)CC(=O)O)N(CC(=O)O)CC(=O)O` [Vb, (R,R)-{[2-{[2-(Bis-carboxymethyl-amino)-propyl]-carboxymethyl-amino}-1-(4-nitro-benzyl)-ethyl]-carboxymethyl-amino}-acetic acid], the “complex stability / complexing properties (in words)” value [6] was “considerably better complexing properties than compounds VIa and VIb”.
